Test results: US20080268460A1, “Assays to Identify Irreversibly Binding Inhibitors of Receptor Tyrosine Kinases” (Wyeth, priority 2004, published 2008)

Legend:
Assay type in all cases: biochemical
KDR wild type enzyme [1] = biological target: T1, KDR wild type enzyme (Homo sapiens, UniProt P35968); test: Basic enzyme assay, KDR wild type (GST-His-KDR-IC); conditions: mean ± standard deviation (N)
T1 construct: beginning at Val-805 (forward, 5′ tag cgg ccg cGT CATGGATCCAGATGAACTCCCATT (lower case—NotI site)) and ending at Val-1356; GST-His (thrombin cleavage site) (N, cleaved yes); made in house; HEK293 possible
T1 sequence (P35968 805-1356): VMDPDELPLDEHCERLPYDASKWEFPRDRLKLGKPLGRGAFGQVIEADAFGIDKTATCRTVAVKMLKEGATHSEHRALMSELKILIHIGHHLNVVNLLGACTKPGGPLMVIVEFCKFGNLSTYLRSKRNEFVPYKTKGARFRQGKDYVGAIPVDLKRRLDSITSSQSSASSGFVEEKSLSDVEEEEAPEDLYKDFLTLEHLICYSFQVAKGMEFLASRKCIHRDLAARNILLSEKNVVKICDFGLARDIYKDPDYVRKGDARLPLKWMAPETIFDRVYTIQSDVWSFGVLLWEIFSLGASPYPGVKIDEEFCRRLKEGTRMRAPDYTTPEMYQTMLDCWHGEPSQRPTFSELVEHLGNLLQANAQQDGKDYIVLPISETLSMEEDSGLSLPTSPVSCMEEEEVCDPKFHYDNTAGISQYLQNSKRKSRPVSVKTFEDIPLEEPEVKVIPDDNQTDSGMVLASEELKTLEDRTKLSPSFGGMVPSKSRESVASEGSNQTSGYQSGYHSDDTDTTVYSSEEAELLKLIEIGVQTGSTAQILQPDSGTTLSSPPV
Procedure: (§1) This mutated protein was designated KDR-C1045A. Additionally, for comparison, the test compounds were assayed using the KDR wild type enzyme in both a basic enzyme assay as well as the enzyme wash-out assay.

KDR wild type enzyme [2] = biological target: T1, KDR wild type enzyme; test: Enzyme wash-out assay, KDR wild type
Procedure: (§2) Parallel plates were tested for each test compound wherein one plate was processed as described above in section 6.3 and the second plate was washed three times in 100 ul of 4 mM HEPES, pH 7.4, to remove unbound compound. 1× kinase buffer (30 ul 1 mM MnCl2, 4 mM HEPES, pH 7.4, 20 μM Na3VO4) and 20 ul of ATP/MgCl2 were then added to the wash-out plate. The KDR-FLAG enzyme, as described in 6.1, was used in these assays.
as §1

KDR-C1045A [3] = biological target: T2, KDR-C1045A (Homo sapiens, UniProt P35968, C1045A); test: Basic enzyme assay, KDR-C1045A mutant enzyme
T2 construct: beginning at Val-805 (forward, 5′ tag cgg ccg cGT CATGGATCCAGATGAACTCCCATT (lower case—NotI site)) and ending at Val-1356; GST-His (thrombin cleavage site) (N); made in house; the mutant was also made in HEK293
T2 sequence (P35968 805-1356 C1045A): as the sequence (P35968 805-1356) above, with C241A counted along it
Procedure: (§3) The protein was expressed in HEK293 or Sf9 cells as described for the wild type protein in sections 6.1 and 6.2. The protein was also purified using the FLAG or GST/His tags.
as §1

KDR-C1045A [4] = biological target: T2, KDR-C1045A; test: Enzyme wash-out assay, KDR-C1045A mutant enzyme
Procedure: as §2, §3, §1

[5] = biological target: T3, KDR-IC-FLAG (human KDR, VEGF-receptor 2) (Homo sapiens, UniProt P35968); test: KDR kinase enzyme assay (DELFIA) using KDR-IC-FLAG kinase, no wash-out; conditions: 10 uM ATP
T3 construct: starting at Met-806 (underlined) (5′-ATGGATCCAGATGAACTCCCATTG) and ending at Val-1356; made in house
T3 sequence (P35968 806-1356): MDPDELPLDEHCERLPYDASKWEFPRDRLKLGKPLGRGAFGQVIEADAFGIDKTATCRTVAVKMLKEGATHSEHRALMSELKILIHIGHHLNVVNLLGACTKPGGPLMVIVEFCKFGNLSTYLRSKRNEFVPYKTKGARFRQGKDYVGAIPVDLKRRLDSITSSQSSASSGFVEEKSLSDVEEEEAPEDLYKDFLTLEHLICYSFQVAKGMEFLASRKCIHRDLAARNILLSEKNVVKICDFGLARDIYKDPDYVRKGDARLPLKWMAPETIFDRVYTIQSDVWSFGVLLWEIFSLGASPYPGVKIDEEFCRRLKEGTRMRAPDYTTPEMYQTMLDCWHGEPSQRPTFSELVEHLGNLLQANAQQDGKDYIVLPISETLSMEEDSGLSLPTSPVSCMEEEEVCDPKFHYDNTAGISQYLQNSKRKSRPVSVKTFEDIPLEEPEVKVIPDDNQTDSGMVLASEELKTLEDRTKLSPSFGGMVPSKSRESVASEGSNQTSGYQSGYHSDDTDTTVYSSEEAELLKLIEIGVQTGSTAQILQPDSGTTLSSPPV
Description: Controls were done by adding DMSO alone, i.e., no test compound, to wells containing the master mix of enzyme plus kinase buffer.

[6] = biological target: T4, KDR-FLAG enzyme (human KDR) (Homo sapiens, UniProt P35968); test: Enzyme wash-out assay, KDR-FLAG enzyme; conditions: plate washed three times before ATP addition
T4 construct: starting at Met-806 (underlined) (5′-ATGGATCCAGATGAACTCCCATTG) and ending at Val-1356; made in house
T4 sequence (P35968 806-1356): as the sequence (P35968 806-1356) above
Procedure: as §2

Row | IC50 (KDR wild type enzyme [1]) | loss of activity upon wash out, wild type KDR (KDR wild type enzyme [2]; wash out vs no wash out) | IC50 (KDR wild type enzyme [2]; wash out, mean ± standard deviation (N)) | loss of activity, mutant versus wild type KDR in basic enzyme assay (KDR-C1045A [3]; KDR-C1045A vs wild type) | IC50 (KDR-C1045A [3]; mean ± standard deviation (N)) | KDR-C1045A, WASH OUT percent inhibition at the high dose tested (KDR-C1045A [4]; high dose tested) | IC50 (KDR-C1045A [4]; mean ± standard deviation (N)) | IC50 [5] | IC50 [6] | Structure (SMILES)
1 | 63.2 ± 23.5 nM | partially washed out | 277 nM | less than a five times loss of activity | 301 ± 140 nM | 33% | > 1000 nM |  |  | COc1cc2c(Oc3ccc4[nH]c(C)cc4c3F)c(C#N)cnc2cc1OCC1CCN(C)CC1 [4-[(4-fluoro-2-methyl-1H-indol-5-yl)oxy]-6-methoxy-7-[(1-methylpiperidin-4-yl)methoxy]quinoline-3-carbonitrile]
2 |  |  |  |  |  |  |  | 17.9 nM | 33.1 nM | COCCOc1cc2ncnc(NC3=C(Sc4nccs4)C(=O)C=C(OC)C3=O)c2cc1OC [5-methoxy-3-{[6-methoxy-7-(2-methoxyethoxy)quinazolin-4-yl]amino}-2-(1,3-thiazoylthio)benzo-1,4-quinone]
